# Measured values taken from US10413559B2, “Method for treating demyelinating disease” (OCHANOMIZU UNIVERSITY, priority 2013, dated 2019).
# How the values were obtained:
# Type in all cases: in vivo, C57BL/6j mice
# [1] = system: GFAP, Iba1, PDGFRa, P2rx7, Nlrp3 gene expression in corpus callosum; assay: Genetic analysis using Q-PCR of corpus callosum tissues; conditions: cuprizone mice; intraperitoneal 1.6 mg/kg/day for 5 weeks; FIG. 6-8
# From the text: (§1) 10-week-old male C57BL/6j mice (Tokyo Laboratory Animals Science Co., Ltd., Tokyo, Japan) were fed by the discretionary intake of a mash feed (CLEA Japan, Inc.) that contained 0.2% cuprizone (biscyclohexanone oxalyl hydrazone; Merck KGaA, Darmstadt, Germany) for 5 weeks until demyelination progressed most, so as to produce demyelination model mice involving demyelination caused by oligodendrocyte-specific cell death.
# To obtain mouse corpus callosum tissues to be used for genetic analysis, mouse brain was removed, and the corpus callosum tissues were then collected from the brain. […]
# mRNA was extracted from the frozen corpus callosum tissues using ISOGEN (Nippon Gene Co., Ltd., Tokyo, Japan), was then dissolved in RNase free molecular grade water (Takara Bio Inc., Shiga, Japan), and was then preserved at −80° C. […] Gene expression was detected using 7900 Sequence Detection System (Applied Biosystems). […] The gene expression level was calculated by a ΔΔCT method. Data were analyzed by a relative quantification method. A relative change in the gene expression was analyzed, while setting the gene expression level in a control mouse at 100%.
# [2] = system: demyelination model mice (0.2% cuprizone), corpus callosum; assay: Electron microscope observation of myelin structure in corpus callosum; conditions: intraperitoneal 1.6 mg/kg/day for 5 weeks, FIG. 5
# From the text: as §1
# The cPA used in the experiment was the same cPA (16:0) as that used in Example 1, and the carba-cPA was 2 ccPA (16:1). The cPA and 2 ccPA were chemically purified (Biochimica et Biophysica Acta, Emi Nozaki 2011), and were then dissolved in a 0.9% saline. The cPA and 2 ccPA were continuously administered to mice via intraperitoneal administration for 5 weeks (1.6 mg/kg/day), at the same time with administration of cuprizone. Control mice were fed with a normal mash feed, and a normal saline was continuously administered to the control mice via intraperitoneal administration for 5 weeks.
# Five weeks after administration of cuprizone, mice were subjected to perfusion fixation with 4% paraformaldehyde, and the brain was then collected from each mouse. Thereafter, corpus callosum tissues were removed from the brain, were then pre-fixed with 2.5% glutaraldehyde fixative, and were then washed with a 0.1 M cacodylate buffer. […]
# [3] = system: demyelination model mice (0.2% cuprizone), corpus callosum; assay: Histological staining (Black Gold II) of corpus callosum and evaluation of demyelination (Example 2); conditions: intraperitoneal 1.6 mg/kg/day for 5 weeks, FIG. 3, FIG. 4
# From the text: 10-week-old male C57BL/6j mice (Tokyo Laboratory Animals Science Co., Ltd., Tokyo, Japan) were fed by the discretionary intake of a mash feed (CLEA Japan, Inc.) that contained 0.2% cuprizone (biscyclohexanone oxalyl hydrazone; Merck KGaA, Darmstadt, Germany) for 5 weeks until demyelination progressed most, so as to produce demyelination model mice involving demyelination caused by oligodendrocyte-specific cell death. To obtain tissues to be used for histological analysis, a mouse was subjected to perfusion fixation through the heart with 4% paraformaldehyde, and the resulting brain tissues were then excised from the mouse. Thereafter, the tissues were immobilized and infiltrated with 30% sucrose. Thereafter, a frozen tissue block was prepared and was then sliced in a cryostat. The cPA used in the experiment was the same cPA (16:0) as that used in Example 1, and the carba-cPA was 2 ccPA (16:1). The cPA and 2 ccPA were chemically purified (Biochimica et Biophysica Acta, Emi Nozaki 2011), and were then dissolved in a 0.9% saline. […] For the analysis of the level of myelin, using Image J 1.46r software, the stained level in the corpus callosum area was measured, and the demyelination level was then evaluated, while setting the control as 100%.
smiles,measurement,setting,value
CCCCCCCCCCCCCCCC(=O)OCC1COP(=O)(O)O1 (stereo not drawn) [cPA],nerve inflammation (gene expression by Q-PCR),[1],nerve inflammation is suppressed
same,demyelination by electron microscope observation of myelin structure,[2],demyelination is suppressed
same,demyelination level in corpus callosum (Black Gold II staining),[3],demyelination is suppressed
